Data published in patent US7745441B1, “Urokinase inhibitors” (Wilex AG, priority 1998, dated 2010).
Counter-ions that a name gives are not always drawn.

What follows are molecules tested against T1, sc-urokinase (Homo sapiens, UniProt P00749) (assay: Inhibition of urokinase (chromogenic substrate, Dixon Ki)). Settings: Tris buffer pH 8.0, 25° C., substrate Pefachrome UK or Bz-βAla-Gly-Arg-pNA; mean of at least 3 determinations.
T1 construct: purchased Ribosepharm GmbH, Haan, Germany
Assay type: biochemical
Description: The Ki values were determined according to Dixon by linear regression using a computer program.

| SMILES | Ki [µM] |
| --- | --- |
| CCOC(=O)N1CCN(C(=O)C(Cc2cccc(C(=N)N)c2)NS(=O)(=O)c2c(C(C)C)cc(C(C)C)cc2C(C)C)CC1 (centres unmarked) | 0.54 |
| CCOC(=O)C1CCN(C(=O)C(Cc2cccc(C(=N)N)c2)NS(=O)(=O)c2c(C(C)C)cc(C(C)C)cc2C(C)C)CC1 (centres unmarked) | 0.72 |
| CC(C)OC(=O)N1CCN(C(=O)C(Cc2cccc(C(=N)N)c2)NS(=O)(=O)c2c(C(C)C)cc(C(C)C)cc2C(C)C)CC1 (centres unmarked) | 0.79 |
| CC(C)c1cc(C(C)C)c(S(=O)(=O)NC(Cc2cccc(C(=N)N)c2)C(=O)N2CCCC(C(=O)OCc3ccccc3)C2)c(C(C)C)c1 (centres unmarked) | 1.2 |
| CC(C)c1cc(C(C)C)c(S(=O)(=O)NC(Cc2cccc(C(=N)N)c2)C(=O)N2CCCC(C(=O)NCc3ccccc3)C2)c(C(C)C)c1 (centres unmarked) | 1.5 |
| CC(C)c1cc(C(C)C)c(S(=O)(=O)NC(Cc2cccc(C(=N)N)c2)C(=O)N2CCN(C(=O)OCc3ccccc3)CC2)c(C(C)C)c1 (centres unmarked) | 1.9 |
| CC1CCN(C(=O)C(Cc2cccc(C(=N)N)c2)NS(=O)(=O)c2c(C(C)C)cc(C(C)C)cc2C(C)C)CC1 (centres unmarked) | 2.2 |
| CC(C)c1cc(C(C)C)c(S(=O)(=O)NC(Cc2cccc(C(=N)N)c2)C(=O)N2CCN(C(=O)N(C)C)CC2)c(C(C)C)c1 (centres unmarked) | 2.7 |
| CCOC(=O)C1CCN(C(=O)[C@H](Cc2cccc(C(=N)N)c2)NS(=O)(=O)c2ccc3ccccc3c2)CC1 | 3.3 |
| CC(=O)N1CCN(C(=O)C(Cc2cccc(C(=N)N)c2)NS(=O)(=O)c2c(C(C)C)cc(C(C)C)cc2C(C)C)CC1 (centres unmarked) | 3.5 |
| N=C(N)c1cccc(C[C@H](NS(=O)(=O)c2ccc3ccccc3c2)C(=O)N2CCC(C(=O)OCc3ccccc3)CC2)c1 | 3.9 |
| CC(C)NC(=O)C1CCN(C(=O)C(Cc2cccc(C(=N)N)c2)NS(=O)(=O)c2c(C(C)C)cc(C(C)C)cc2C(C)C)CC1 (centres unmarked) | 4.2 |
| CNC(=O)C1CCN(C(=O)C(Cc2cccc(C(=N)N)c2)NS(=O)(=O)c2c(C(C)C)cc(C(C)C)cc2C(C)C)CC1 (centres unmarked) | 4.4 |
| CCOC(=O)N1CCN(C(=O)[C@H](Cc2cccc(C(=N)N)c2)NS(=O)(=O)c2c(C(C)C)cc(C(C)C)cc2C(C)C)CC1 [N-α-2,4,6-Triisopropylphenylsulfonyl-(L)-3-amidinophenylalanine-4-ethoxycarbonyl-piperazide hydrochloride] | 0.49 |
